According to US7419984B2, “Pyrimidines and uses thereof” (Cell Therapeutics, Inc., priority 2002, dated 2008):

Molecular target: T1, human LPAAT-β (Homo sapiens, UniProt O15120)
T1 construct: the full-length human LPAAT-β cDNA was amplified by PCR; poly-histidine tag (N); made in house; host or cells: Sf9 insect cells (baculovirus, pFastBac HTc); the membrane fraction was used as the enzyme
T1 sequence (O15120 24-278): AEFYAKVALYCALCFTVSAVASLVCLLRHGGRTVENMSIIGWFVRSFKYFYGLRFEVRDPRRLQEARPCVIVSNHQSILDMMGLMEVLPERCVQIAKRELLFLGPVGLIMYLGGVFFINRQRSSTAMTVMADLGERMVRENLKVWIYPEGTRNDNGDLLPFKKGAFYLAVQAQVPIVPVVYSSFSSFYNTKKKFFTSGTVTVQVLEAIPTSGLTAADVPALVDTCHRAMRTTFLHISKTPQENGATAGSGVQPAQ
Experiment: LPAAT-β cell-free assay
Type: biochemical
Details: Sf9 cell membrane overexpressing recombinant LPAAT-β
Text: For the construction of Baculovirus expression vectors, the full-length human LPAAT-β cDNA was amplified by PCR from the DNA template pCE9.LPAAT-β (West et al., DNA Cell Bid. 16.691-701 (1997)) using the primers 5′-[…] […] […] […]-3′ (olpb1F; SEQ ID NO:1) and 5′-[…] […] […]-3′ (olpb1R; SEQ ID NO:2). The ˜870 bp fragment generated was reamplified by PCR using the primers 5′ […] […] […] […] ATC-3′ (olpb2F; SEQ ID NO:3) and 5′-[…] […] […]-3′ (olpb1R; SEQ ID NO:2). The ˜890 bp fragment generated was then cleaved with Sal I and Xba I for insertion into pFastBac™ HTc vector (Life Technologies, Gaithersberg, M.d.) between the Sal I and Xba I sites for the generation of the plasmid pFB.LPAAT-β. This plasmid was then transformed into E. coli DH10Bac™ (Life Technologies, Gaithersberg, M.d.) for the generation of recombinant Bacmid DNA for transfection in HighFive (Invitrogen, San Diego, Calif.) or SF9 insect cells for the production of recombinant Baculovirus stocks using the protocol described in the Bac-to-Bac® Baculovirus Expression System (Life Technologies, Gaithersberg, M.d.), a eukaryotic expression system for generating recombinant baculovirus through site-specific transposition in E. coli. Viral stocks harvested from the transfected cells can then be used to infect fresh insect cells for the subsequence expression of LPAAT-β fusion protein with a poly-histidine tag and a myc-epitope near its N-terminus. The membrane fraction from these Sf9 cells would be the source of LPAAT enzyme.
For the preparation of membranes from Sf9 Cells, all steps are performed on ice or at 4° C. Sf9 cell pellets (˜10^8 cells) were thawed and resuspended in 1-2 ml of buffer A (20 mM Hepes, pH 7.5, 1 mM DTT, 1 mM EDTA, 20% w/v glycerol, 1 mM Benzamidine, 1 μg/ml soybean trypsin inhibitor (SBTI), 1 μug/ml pepstatin A) w/o DTT but with 1 mM Pefabloc. The cells were lysed by sonication using a Branson Sonifier at output=2, duty cycle=2, 10 pulses each at 10 s. with the tip of small sonicator probe submerged but not touching the walls. DTT was then added to 1 mM from a 1 M stock. The samples were centrifuged at 1500 rpm for 5 min. The low speed supernatant was saved and centrifuged (TLA 100.3 rotor, polycarbonate tubes, 2 ml/tube or 1.5 ml/tube minimum) at 100000×g for 1 hr. The high speed pellet was resuspend in Buffer A with a probe sonicator (10 pulses @ output #2 and duty cycle 20%) as a source of LPAAT enzyme.
LPAAT-β catalyzes the transfer of an acyl group from a donor such as acyl-CoA to LPA. The transfer of the acyl group from acyl-CoA to LPA leads to the release of free CoA, which can be reacted with the thiol reagent, 5,5′-dithiobis(2-nitrobenzoic acid) (DTNB). The reaction between DTNB and the free sulfhydryl group from CoA generates a yellow-colored product, 3-carboxylato-4-nitrothiophenolate (CNP), that absorbs at 413 nm. LPAAT-β derived from Sf9 cell membrane overexpressing LPAAT-β were resuspended in HEPES saline buffer (20 mM HEPES pH 7.5, 150 mM NaCl), 1 mg/ml BSA and 72 μl aliquots were distributed into 96-well microtiter plates. 8 μl of compound of interest at 200 μM dissolved in 100% DMSO was added into each well. […] of 1 mM 18:1-CoA and 1 mM sn-1-18:1 lysoPA was then added to each well to initiate the reaction and allowed to run at room temperature for 25 min. 100 μl of 1 mM DTNB in 100% ethanol was then added to each well to quench the reaction and for color development. The absorbance at 405 nm, measured using a spectrophotometer plate reader, is proportional to the activity of LPAAT-2 in the sample. This colorimetric assay was used for the high throughput screening of LPAAT inhibitors.
The radiometric assay was carried out in Sf9 cell membrane overexpressing LPAAT-β resuspended in HEPES-saline buffer, pH 7.5, 1 mg/ml BSA, 1 mM EDTA and 200 μM [^14C]18:1-CoA and 200 μM sn-1-18:1 lysoPA.

| SMILES | IC50 [nM] |
| --- | --- |
| Cc1ccc(Cl)cc1-c1cc(Nc2ccc(CO)cc2)nc(N)n1 [Example 33, {4-[2-Amino-6-(5-chloro-2-methyl-phenyl)-pyrimidin4-ylamino]-phenyl}-methanol] | 95 |
| COc1ccc(Cl)cc1-c1cc(N)nc(Nc2ccc(Cl)cc2)n1 [Example 34, 6-(5-Chloro-2-methoxy-phenyl)-N*2*-(4-chloro-phenyl)-pyrimidine-2,4-diamine] | 2000 |
| COc1ccc(Cl)cc1-c1cc(N)nc(Nc2ccc3cn[nH]c3c2)n1 [Example 35, 6-(5-Chloro-2-methoxyphenyl)-N*2*-(1H-indazol-6yl)-pyrimidine-2,4-diamine] | 800 |
| COc1ccc(Cl)cc1-c1nc(N)cc(Nc2ccc(Br)cc2)n1 [Example 36, N-(4-Bromo-phenyl)-2-(5-chloro-2-methoxy-phenyl)-pyrimidine4,6-diamine] | 8000 |
| COc1ccc(Cl)cc1-c1nc(N)cc(Nc2ccc3cn[nH]c3c2)n1 [Example 37, 2-(5-Chloro-2-methoxy-phenyl)-N-(1H-indazol-6-yl)-pyrimidine4,6-diamine] | 2100 |
| COc1ccc(Cl)cc1-c1cc(Nc2ccc(Cl)cc2)nc(C)n1 [Example 38, [6-(5-Chloro-2-methoxy-phenyl)-2-methyl-pyrimidin-4-yl]-(4-chloro-phenyl)-amine] | 50 |
| COc1ccc(Cl)cc1-c1cc(Nc2ccc(Br)cc2)nc(C)n1 [Example 39, [6-(5-Chloro-2-methoxy-phenyl)-2-methyl-pyrimidin-4-yl]-(4-bromo-phenyl)-amine] | 180 |
| CCOc1ccc(Cl)cc1-c1cc(Nc2ccc(CO)cc2)nc(N)n1 [Example 44, {4-[2-Amino-6-(5-chloro-2-ethoxy-phenyl)-pyrimidin-4-ylamino]-phenyl}-methanol] | 75 |
| Cc1ccc(Cl)cc1-c1cc(Nc2ccc(CCO)cc2)nc(N)n1 [Example 49, 2-{4-[2-Amino-6-(5-chloro-2-methyl-phenyl)-pyrimidin4-ylamino]-phenyl}-ethanol] | 49 |

These reach a lower IC50. Values come first.

| IC50 [nM] | SMILES |
| --- | --- |
| 38 | Cc1ccc(Cl)cc1-c1cc(Nc2ccc(C#N)cc2)nc(N)n1 [Example 32, 4-[2-Amino-6-(5-chloro-2-methyl-phenyl)-pyrimidin4-ylamino]-benzonitrile] |
| 14 | COc1ccc(Cl)cc1-c1cc(Nc2ccc3cn[nH]c3c2)nc(C)n1 [Example 40, [6-(5-Chloro-2-methoxy-phenyl)-2-methyl-pyrimidin4-yl]-(1H-indazol-6-yl)-amine] |
| 21 | Cc1nc(Nc2ccc(Br)cc2)cc(-c2cc(Cl)ccc2C)n1 [Example 41, [6-(5-Chloro-2-methyl-phenyl)-2-methyl-pyrimidin-4-yl]-(4-bromo-phenyl)-amine] |
| 10 | Cc1nc(Nc2ccc(Cl)cc2)cc(-c2cc(Cl)ccc2C)n1 [Example 42, [6-(5-Chloro-2-methyl-phenyl)-2-methyl-pyrimidin-4-yl]-(4-chloro-phenyl)-amine] |
| 17 | Cc1nc(Nc2ccc3cn[nH]c3c2)cc(-c2cc(Cl)ccc2C)n1 [Example 43, [6-(5-Chloro-2-methyl-phenyl)-2-methyl-pyrimidin-4-yl]-(1H-indazol-6-yl)-amine] |
| 33 | COc1ccc(Cl)cc1-c1cc(Nc2ccc(C#N)cc2)nc(N)n1 [Example 45, 4-[2-Amino-6-(5-chloro-2-methoxy-phenyl)-pyrimidin-4-ylamino]-benzonitrile] |
| 10 | CCOc1ccc(Cl)cc1-c1cc(Nc2ccc([N+](=O)[O-])cc2)nc(N)n1 [Example 46, 6-(5-Chloro-2-ethoxy-phenyl)-N*4*-(4-nitro-phenyl)-pyrimidine-2,4-diamine] |
| 28 | CCOc1ccc(Cl)cc1-c1cc(Nc2ccc(CCO)cc2)nc(N)n1 [Example 47, 2-{4-[2-Amino-6-(5-chloro-2-ethoxy-phenyl)-pyrimidin4-ylamino]-phenyl}-ethanol] |
| 28 | Nc1nc(Nc2ccc(CCO)cc2)cc(-c2cc(Cl)ccc2Cl)n1 [Example 48, 2-{4-[2-Amino-6-(2,5-dichloro-phenyl)-pyrimidin4-ylamino]-phenyl}-ethanol] |
